Several values for one entry are separate records, joined by “and”; a condition that tells them apart may be missing. Equal values may be shown once.
Experiments:
human BCRP = molecular target: T1, human BCRP (Homo sapiens, UniProt Q9UNQ0); test: Vesicular transport assay, Sf9 membrane vesicles expressing human BCRP; format: in vitro ADME; conditions: 1 μM, MgATP vs MgAMP
T1 construct: purchased GenoMembrane (Kanagawa, Japan); host or cells: Sf9
T1 sequence (Q9UNQ0 1-655): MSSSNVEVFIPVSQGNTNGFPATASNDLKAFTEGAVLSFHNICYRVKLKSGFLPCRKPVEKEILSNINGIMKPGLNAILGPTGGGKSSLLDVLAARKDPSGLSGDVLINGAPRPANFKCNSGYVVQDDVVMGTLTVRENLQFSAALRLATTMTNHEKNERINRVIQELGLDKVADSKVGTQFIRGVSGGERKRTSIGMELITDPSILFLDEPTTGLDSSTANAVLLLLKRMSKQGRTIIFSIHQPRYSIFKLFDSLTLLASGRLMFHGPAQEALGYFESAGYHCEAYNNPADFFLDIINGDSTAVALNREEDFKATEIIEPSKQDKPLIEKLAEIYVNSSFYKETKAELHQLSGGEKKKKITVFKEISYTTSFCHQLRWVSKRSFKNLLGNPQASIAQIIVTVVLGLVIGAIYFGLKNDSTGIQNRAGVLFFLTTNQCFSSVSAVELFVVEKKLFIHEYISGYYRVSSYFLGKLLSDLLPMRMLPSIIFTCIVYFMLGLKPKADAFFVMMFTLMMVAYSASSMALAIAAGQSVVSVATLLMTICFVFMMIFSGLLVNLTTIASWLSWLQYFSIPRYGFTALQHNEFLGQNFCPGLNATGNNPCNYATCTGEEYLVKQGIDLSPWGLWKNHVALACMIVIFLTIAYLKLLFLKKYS
Experimental: (§1) The vesicular transport assay was implemented as described in the GenoMembrane™ vesicular transport kit protocol (GenoMembrane, Kanagawa, Japan) with minor changes. Briefly, vesicle stocks were thawed and diluted with assay buffer (50 mM MOPS-Tris, 70 mM KCl, and 7.5 mM MgCl2). […] MgAMP instead of MgATP was used as a control. Apart from these, 4 mM glutathione was also included in BCRP and MRP2 assays. Transport was terminated with ice cold assay buffer, and then samples were quickly transferred to a filter plate. Wells were immediately washed 5 times with 200 μL assay buffer and dried. The vesicles on the plate were dissolved in 50 μL of 80% methanol and centrifuged at 2,000 rpm for 2 min after collection, and repeating the above procedures. Mixed the two filtrates together and added the pre-cooled methanol. After centrifugation at 12,000 rpm for 5 min at 4°C, a 5 μL aliquot of supernatant was injected into the UPLC-ESI-MS/MS system for analysis. Furthermore, the uptake of NMQ (MDR1), LY (BCRP), and E217βG (MRP2) was used to evaluate the activity of specific vesicles.

human MDR1 = molecular target: T2, human MDR1 (Homo sapiens, UniProt P08183); test: Vesicular transport assay, Sf9 membrane vesicles expressing human MDR1; format: in vitro ADME; conditions: 1 μM, MgATP vs MgAMP
T2 construct: purchased GenoMembrane (Kanagawa, Japan); host or cells: Sf9
T2 sequence (P08183 whole entry): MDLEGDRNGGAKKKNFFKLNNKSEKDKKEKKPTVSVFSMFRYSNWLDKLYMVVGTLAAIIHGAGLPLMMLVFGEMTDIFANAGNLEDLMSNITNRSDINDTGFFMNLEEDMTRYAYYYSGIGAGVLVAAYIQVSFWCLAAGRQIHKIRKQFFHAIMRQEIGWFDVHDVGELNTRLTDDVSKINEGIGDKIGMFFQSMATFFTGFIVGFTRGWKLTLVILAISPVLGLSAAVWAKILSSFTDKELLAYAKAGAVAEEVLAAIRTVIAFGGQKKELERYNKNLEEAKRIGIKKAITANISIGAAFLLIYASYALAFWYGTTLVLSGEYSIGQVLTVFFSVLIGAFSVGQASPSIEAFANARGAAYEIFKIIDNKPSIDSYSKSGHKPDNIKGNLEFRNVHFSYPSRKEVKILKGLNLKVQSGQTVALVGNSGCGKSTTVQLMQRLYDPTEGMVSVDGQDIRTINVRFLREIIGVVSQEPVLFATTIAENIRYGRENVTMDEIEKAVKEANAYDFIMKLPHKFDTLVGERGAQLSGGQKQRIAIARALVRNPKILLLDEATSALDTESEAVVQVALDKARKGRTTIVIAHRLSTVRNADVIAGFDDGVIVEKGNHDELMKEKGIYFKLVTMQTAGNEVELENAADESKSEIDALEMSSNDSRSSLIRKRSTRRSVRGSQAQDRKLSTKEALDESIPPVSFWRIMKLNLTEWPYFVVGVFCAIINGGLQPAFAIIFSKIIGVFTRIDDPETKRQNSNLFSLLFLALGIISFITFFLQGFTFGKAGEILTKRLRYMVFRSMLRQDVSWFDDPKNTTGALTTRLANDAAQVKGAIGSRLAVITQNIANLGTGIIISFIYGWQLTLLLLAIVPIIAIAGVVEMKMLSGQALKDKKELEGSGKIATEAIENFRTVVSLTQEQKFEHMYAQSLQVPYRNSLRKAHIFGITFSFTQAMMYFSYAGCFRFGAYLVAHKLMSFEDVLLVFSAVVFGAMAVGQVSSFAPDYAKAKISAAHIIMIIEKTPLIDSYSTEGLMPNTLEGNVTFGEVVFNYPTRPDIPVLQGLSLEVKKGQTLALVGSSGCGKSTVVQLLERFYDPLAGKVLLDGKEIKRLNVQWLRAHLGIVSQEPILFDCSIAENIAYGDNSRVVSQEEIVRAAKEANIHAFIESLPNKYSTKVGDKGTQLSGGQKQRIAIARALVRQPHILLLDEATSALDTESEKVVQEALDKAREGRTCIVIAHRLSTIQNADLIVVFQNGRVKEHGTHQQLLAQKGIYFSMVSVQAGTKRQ
Experimental: as §1

SGLT1 = test: in vitro; conditions: human, Caco-2, ER, Caco-2, 2 μM, + Phloridzin 0.5 mM (SGLT1)
Experimental: (§2) Caco-2, MDCK and MDCK-MRP2 cells were donated by Prof. Yan Xie and Yueming Ma from Shanghai University of Traditional Chinese Medicine. The cells were grown in culture dishes (Corning® Costar, Cambridge, MA, USA) using DMEM supplemented with 10% FBS, 1% NEAA and 1% penicillin-streptomycin solution. The cells were cultured in 5% CO2 and […] with 90% relative humidity at 37°C. The medium was replaced every other day during incubation. The cells were passaged every 3–4 days between 70 and 80% confluence at a 1:5 split ratio using 0.25% trypsin-EDTA. For the transport experiments, the cells from passages between 30 and 45 were seeded at 1 × 10^5 cells/cm^2 onto permeable polycarbonate inserts (0.45 μm pore size, seeding surface of 0.6 cm^2, Millipore, MA, USA) in 24-well plastic plates. The media in the culture plates were changed every other day for the first week after seeding and were replaced daily afterward. […] The cells were used for the transport experiments 21–28 (Caco-2) or 5–7 (MDCK and MDCK-MRP2) days after seeding, and only monolayers with a TEER-value above 420 Ω cm^2 were used during the studies.
(§3) The apical (AP) and basolateral (BL) sides are typical of polarized Caco-2, MDCK and MDCK-MRP2 epithelial cells. Before the experiments, the polarized cell monolayers were washed twice with warm HBSS solution and subsequently preincubated (37°C, 30 min). Afterward, HBSS solution on both sides of the cell monolayers was removed using a mini desktop vacuum pump. […] The final DMSO concentration in the HBSS or drug mixture was below 0.5%. The monolayers were incubated at 37°C, and 100 μL samples were taken at 30, 60, 90, and 120 min from the acceptor compartment and immediately replaced with the same volume of prewarmed fresh blank HBSS. TEER measurements for assessing the membrane integrity took place before and after the experiments.
(§4) The apparent permeability coefficients (Papp) and ER were calculated as Equations (2) and (3): […]
(§5) where dQ/dt is the steady-state flux, A is the membrane surface area, and C0 is the initial drug concentration in the donor compartment. PappBA is the Papp-value measured in BL to AP direction and PappAB is the Papp-value measured in AP to BL direction. It indicated the involvement of an active transport process when the ER-value is above 1.5 (Hubatsch et al., [2007]).

MCTs [1] = test: in vitro; conditions: human, Caco-2, ER, Caco-2, 2 μM, + Phloretin 0.3 mM (MCTs)
Experimental: as §2, §3, §4, §5

OCTs/OCTNs = test: in vitro; conditions: human, Caco-2, ER, Caco-2, 2 μM, + TEA 5 mM (OCTs/OCTNs)
Experimental: as §2, §3, §4, §5

PEPT1 = test: Bidirectional transport in MDCK cell monolayers with selective transporter inhibitors or substrates; format: in vitro ADME, canine; conditions: dog, with Gly-Sar 10 mM, + Gly-Sar 10 mM (PEPT1)
Experimental: as §2, §3, §4, §5

[2] = as above; format: in vitro ADME, canine; conditions: dog, Control (no inhibitor or substrate), read-out: ER
Experimental: as §2, §3, §4, §5

MCTs [3] = test: as above; format: in vitro ADME, canine; conditions: dog, with phloretin 0.3 mM, + Phloretin 0.3 mM (MCTs)
Experimental: as §2, §3, §4, §5

OATPs = test: as above; format: in vitro ADME, canine; conditions: dog, with ES 0.05 mM (50 μM), + ES 0.05 mM (OATPs)
Experimental: as §2, §3, §4, §5

[4] = design: method as in Wu et al., 2009; conditions: wild-type and CYP2D6-humanized mice, intraperitoneal injection, 5 or 15 mg/kg; ref Wu et al., 2009; cited from earlier work
Caco-2 cell monolayers = conditions: Caco-2 monolayers, 250–500 μM; ref Khan et al., 2004; cited from earlier work

Question: With `COc1ccc2c3c([nH]c2c1)C(C)=NCC3` [Harmaline] as the compound, how does the “uptake ratio (UR)” value (human BCRP) read?
Answer: Its value is < 2.00 and 1.42.

Question: And the “uptake ratio (UR)” value (human MDR1)?
Answer: Its value is < 2.00 and 1.97.

Question: What about the efflux ratio (SGLT1) of the same compound?
Answer: Its efflux ratio is 0.95.

Question: What about the efflux ratio (MCTs [1]) of the same compound?
Answer: The efflux ratio was 0.95.

Question: And the efflux ratio (OCTs/OCTNs)?
Answer: The efflux ratio was 1.13.

Question: What about the Papp A→B at 120 min, 2 μM (PEPT1) of the same compound?
Answer: The Papp A→B at 120 min, 2 μM was 20.9 ± 2.9 ×10⁻⁶ cm/s.

Question: What about the Papp B→A at 120 min, 2 μM (PEPT1) of the same compound?
Answer: The Papp B→A at 120 min, 2 μM was 21.4 ± 1.96 ×10⁻⁶ cm/s.

Question: And the efflux ratio at 120 min, 2 μM (PEPT1; read-out: ER)?
Answer: Its efflux ratio at 120 min, 2 μM is 1.03.

Question: What about the efflux ratio at 120 min, 2 μM [2] of the same compound?
Answer: The efflux ratio at 120 min, 2 μM was 1.03.

Question: And the Papp B→A at 120 min, 2 μM (MCTs [3])?
Answer: The Papp B→A at 120 min, 2 μM was 23.3 ± 1.4 ×10⁻⁶ cm/s.

Question: And the efflux ratio at 120 min, 2 μM (MCTs [3]; read-out: ER)?
Answer: The efflux ratio at 120 min, 2 μM was 1.15.

Question: And the Papp A→B at 120 min, 2 μM (OATPs)?
Answer: The Papp A→B at 120 min, 2 μM was 19.4 ± 3.23 ×10⁻⁶ cm/s.

Question: And the efflux ratio at 120 min, 2 μM (OATPs; read-out: ER)?
Answer: Its efflux ratio at 120 min, 2 μM is 1.07.

Question: And the F-values [4]?
Answer: Its F-values is 73.7% and 98.2% and 68.6% and 60.0%.

Question: And the “efflux ratios (ER)” value (Caco-2 cell monolayers)?
Answer: Its value is < 1.0.
